Reference: US6737383B1, “Herbicidal oxadiazolidines” (priority 1999, dated 2004)

Assays:
corn = assay: Test B pre/postemergence corn; assay type: in vivo, Zea mays; conditions: for Corn plant response rating: scale of 0 to 10 where 0 is no effect and 10 is complete control
Procedure, shortened: (§1)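 Test chemicals in a non-phytotoxic solvent mixture with surfactant were sprayed preemergence onto planted seeds and postemergence onto plants 2 to 18 cm tall (1- to 4-leaf stage). After twelve to sixteen days in a greenhouse, injury was visually rated against untreated controls from 0 (no effect) to 10 (complete control).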

velvetleaf = assay: Test B pre/postemergence velvetleaf; assay type: in vivo, Abutilon theophrasti; conditions: for Velvetleaf plant response rating: scale of 0 to 10 where 0 is no effect and 10 is complete control
Procedure, shortened: as §1

blackgrass = assay: Test B pre/postemergence blackgrass; assay type: in vivo, Alopecurus myosuroides
Procedure, shortened: as §1

sugar beet = assay: Test B pre/postemergence sugar beet; assay type: in vivo, Beta vulgaris; conditions: for Sugarbeets plant response rating: scale of 0 to 10 where 0 is no effect and 10 is complete control
Procedure, shortened: as §1

rice = assay: Test B flood test rice; assay type: in vivo, Oryza sativa
Procedure, shortened: (§2)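 Each value is a visual injury score relative to controls, with 10 meaning complete control and 0 no effect. Evaluation took place twelve to sixteen days after the 2-leaf-stage plants were treated and kept in the greenhouse.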

wheat = assay: Test B pre/postemergence wheat; assay type: in vivo, Triticum aestivum; conditions: for Wheat plant response rating: scale of 0 to 10 where 0 is no effect and 10 is complete control
Procedure, shortened: as §1

soybean = assay: Test B pre/postemergence soybean; assay type: in vivo, Glycine max; conditions: for Soybean plant response rating: scale of 0 to 10 where 0 is no effect and 10 is complete control
Procedure, shortened: as §1

bedstraw = assay: Test B pre/postemergence bedstraw; assay type: in vivo, Galium aparine
Procedure, shortened: as §1

cocklebur = assay: Test B pre/postemergence cocklebur; assay type: in vivo, Xanthium strumarium; conditions: for Cocklebur plant response rating: scale of 0 to 10 where 0 is no effect and 10 is complete control
Procedure, shortened: as §1

surinam grass = assay: Test B pre/postemergence surinam grass; assay type: in vivo, Brachiaria decumbens
Procedure, shortened: as §1

purple nutsedge = assay: Test B pre/postemergence purple nutsedge; assay type: in vivo, Cyperus rotundus; conditions: for Nutsedge plant response rating: scale of 0 to 10 where 0 is no effect and 10 is complete control
Procedure, shortened: as §1

wild oat = assay: Test B pre/postemergence wild oat; assay type: in vivo, Avena fatua; conditions: for Wild oats plant response rating: scale of 0 to 10 where 0 is no effect and 10 is complete control
Procedure, shortened: as §1

duck salad = assay: Test B flood test duck salad; assay type: in vivo, Heteranthera limosa
Procedure, shortened: as §2

giant foxtail = assay: Test B pre/postemergence giant foxtail; assay type: in vivo, Setaria faberii; conditions: for Giant foxtail plant response rating: scale of 0 to 10 where 0 is no effect and 10 is complete control
Procedure, shortened: as §1

crabgrass = assay: Test B pre/postemergence crabgrass; assay type: in vivo, Digitaria sanguinalis; conditions: for Crabgrass plant response rating: scale of 0 to 10 where 0 is no effect and 10 is complete control
Procedure, shortened: as §1

pigweed = assay: Test B pre/postemergence pigweed; assay type: in vivo, Amaranthus retroflexus; conditions: for Redroot pigweed plant response rating: scale of 0 to 10 where 0 is no effect and 10 is complete control
Procedure, shortened: as §1

[1] = Postemergence, Rate 125 g/ha, scale 0 to 10, 0 is no effect, 10 is complete control
[2] = Rate 500 g/ha, Postemergence, scale 0 to 10, 0 no effect, 10 complete control
[3] = Preemergence, Rate 62 g/ha, scale of 0 to 10 where 0 is no effect and 10 is complete control
[4] = Preemergence, Rate 250 g/ha, scale of 0 to 10 where 0 is no effect and 10 is complete control
[5] = Preemergence, Rate 500 g/ha, scale of 0 to 10 where 0 is no effect and 10 is complete control
[6] = Rate 62 g/ha, Postemergence, scale of 0 to 10 where 0 is no effect and 10 is complete control
[7] = Rate 250 g/ha, Postemergence, scale of 0 to 10 where 0 is no effect and 10 is complete control
[8] = Rate 62 g/ha, headed Pre-emergence (flood test species), scale 0 to 10 (0 no effect, 10 complete control)
[9] = Rate 125 g/ha, Pre-emergence, flood test species, scale 0 to 10 where 0 is no effect and 10 is complete control
[10] = Rate 250 g/ha, Pre-emergence, flood-test species, scale 0 to 10, 0 is no effect, 10 is complete control
[11] = Rate 500 g/ha, Pre-emergence, flood test species, scale 0 to 10 (0 no effect, 10 complete control)

CC(C)N(C(=O)n1oc(=O)n(C2CCCCCC2)c1=O)c1ccc(F)cc1 [Compound 340]
Plant response rating, Corn (corn; [1]): 0
Corn plant response rating (corn; Preemergence, Rate 62 g/ha): 0
Corn plant response rating (0 to 10 scale) (corn; Preemergence, Rate 125 g/ha): 0
Corn plant response rating (corn; Preemergence, Rate 250 g/ha): 0
Corn plant response rating (corn; Preemergence, Rate 500 g/ha): 0
Corn plant response rating (corn; Rate 62 g/ha, Postemergence): 0
Plant response rating, Corn (corn; [2]): 0
Plant response rating, Velvetleaf (velvetleaf; [1]): 0
Velvetleaf plant response rating (velvetleaf; Preemergence, Rate 62 g/ha): 0
Velvetleaf plant response rating (0 to 10 scale) (velvetleaf; Preemergence, Rate 125 g/ha): 0
Velvetleaf plant response rating (velvetleaf; Preemergence, Rate 250 g/ha): 0
Velvetleaf plant response rating (velvetleaf; Preemergence, Rate 500 g/ha): 2
Velvetleaf plant response rating (velvetleaf; Rate 62 g/ha, Postemergence): 0
Plant response rating, Velvetleaf (velvetleaf; [2]): 3
Plant response rating, Blackgrass (blackgrass; [1]): 0
Blackgrass plant response rating (blackgrass; [3]): 0
Blackgrass plant response rating (0 to 10 scale) (blackgrass; Preemergence, Rate 125 g/ha): 2
Blackgrass plant response rating (blackgrass; [4]): 3
Blackgrass plant response rating (blackgrass; [5]): 8
Blackgrass plant response rating (blackgrass; [6]): 0
Plant response rating, Blackgrass (blackgrass; [7]): 3
Plant response rating, Blackgrass (blackgrass; [2]): 8
Plant response rating, Sugarbeets (sugar beet; [1]): 2
Sugarbeets plant response rating (sugar beet; Preemergence, Rate 62 g/ha): 0
Sugarbeets plant response rating (0 to 10 scale) (sugar beet; Preemergence, Rate 125 g/ha): 0
Sugarbeets plant response rating (sugar beet; Preemergence, Rate 250 g/ha): 0
Sugarbeets plant response rating (sugar beet; Preemergence, Rate 500 g/ha): 0
Sugarbeets plant response rating (sugar beet; Rate 62 g/ha, Postemergence): 0
Plant response rating, Sugarbeets (sugar beet; [2]): 6
Rice plant response rating (rice; [8]): 0
Rice plant response rating (rice; [9]): 0
Rice plant response rating (rice; [10]): 0
Rice plant response rating (rice; [11]): 0
Plant response rating, Wheat (wheat; [1]): 0
Wheat plant response rating (wheat; Preemergence, Rate 62 g/ha): 0
Wheat plant response rating (0 to 10 scale) (wheat; Preemergence, Rate 125 g/ha): 0
Wheat plant response rating (wheat; Preemergence, Rate 250 g/ha): 0
Wheat plant response rating (wheat; Preemergence, Rate 500 g/ha): 0
Wheat plant response rating (wheat; Rate 62 g/ha, Postemergence): 0
Plant response rating, Wheat (wheat; [2]): 0
Plant response rating, Soybean (soybean; [1]): 2
Soybean plant response rating (soybean; Preemergence, Rate 62 g/ha): 0
Soybean plant response rating (0 to 10 scale) (soybean; Preemergence, Rate 125 g/ha): 0
Soybean plant response rating (soybean; Preemergence, Rate 250 g/ha): 0
Soybean plant response rating (soybean; Preemergence, Rate 500 g/ha): 0
Soybean plant response rating (soybean; Rate 62 g/ha, Postemergence): 1
Plant response rating, Soybean (soybean; [2]): 3
Plant response rating, Bedstraw (bedstraw; [1]): 7
Bedstraw plant response rating (bedstraw; [3]): 0
Bedstraw plant response rating (0 to 10 scale) (bedstraw; Preemergence, Rate 125 g/ha): 0
Bedstraw plant response rating (bedstraw; [5]): 5
Bedstraw plant response rating (bedstraw; [6]): 3
Plant response rating, Bedstraw (bedstraw; [7]): 7
Plant response rating, Bedstraw (bedstraw; [2]): 8
Plant response rating, Cocklebur (cocklebur; [1]): 0
Cocklebur plant response rating (cocklebur; Preemergence, Rate 62 g/ha): 0
Cocklebur plant response rating (0 to 10 scale) (cocklebur; Preemergence, Rate 125 g/ha): 0
Cocklebur plant response rating (cocklebur; Preemergence, Rate 250 g/ha): 0
Cocklebur plant response rating (cocklebur; Preemergence, Rate 500 g/ha): 0
Cocklebur plant response rating (cocklebur; Rate 62 g/ha, Postemergence): 0
Plant response rating, Cocklebur (cocklebur; [2]): 0
Plant response rating, B. signalgrass (surinam grass; [1]): 0
B. signalgrass plant response rating (surinam grass; [3]): 0
B. signalgrass plant response rating (0 to 10 scale, 0 is no effect, 10 is complete control) (surinam grass; Preemergence, Rate 125 g/ha): 0
B. signalgrass plant response rating (surinam grass; [4]): 1
B. signalgrass plant response rating (surinam grass; [5]): 2
B. signalgrass plant response rating (surinam grass; [6]): 0
Plant response rating, B. signalgrass (surinam grass; [7]): 0
Plant response rating, B. signalgrass (surinam grass; [2]): 0
Plant response rating, Nutsedge (purple nutsedge; [1]): 0
Nutsedge plant response rating (purple nutsedge; Preemergence, Rate 62 g/ha): 0
Nutsedge plant response rating (0 to 10 scale) (purple nutsedge; Preemergence, Rate 125 g/ha): 0
Nutsedge plant response rating (purple nutsedge; Preemergence, Rate 250 g/ha): 0
Nutsedge plant response rating (purple nutsedge; Preemergence, Rate 500 g/ha): 0
Nutsedge plant response rating (purple nutsedge; Rate 62 g/ha, Postemergence): 0
Plant response rating, Nutsedge (purple nutsedge; [2]): 0
Plant response rating, Wild oats (wild oat; [1]): 0
Wild oats plant response rating (wild oat; Preemergence, Rate 62 g/ha): 0
Wild oats plant response rating (0 to 10 scale) (wild oat; Preemergence, Rate 125 g/ha): 0
Wild oats plant response rating (wild oat; Preemergence, Rate 250 g/ha): 2
Wild oats plant response rating (wild oat; Preemergence, Rate 500 g/ha): 3
Wild oats plant response rating (wild oat; Rate 62 g/ha, Postemergence): 0
Plant response rating, Wild oats (wild oat; [2]): 0
Ducksalad plant response rating (duck salad; [8]): 0
Ducksalad plant response rating (duck salad; [9]): 0
Ducksalad plant response rating (duck salad; [10]): 0
Ducksalad plant response rating (duck salad; [11]): 5
Plant response rating, Giant foxtail (giant foxtail; [1]): 0
Giant foxtail plant response rating (giant foxtail; Preemergence, Rate 62 g/ha): 8
Giant foxtail plant response rating (0 to 10 scale) (giant foxtail; Preemergence, Rate 125 g/ha): 10
Giant foxtail plant response rating (giant foxtail; Preemergence, Rate 250 g/ha): 10
Giant foxtail plant response rating (giant foxtail; Preemergence, Rate 500 g/ha): 10
Giant foxtail plant response rating (giant foxtail; Rate 62 g/ha, Postemergence): 0
Plant response rating, Giant foxtail (giant foxtail; [2]): 6
Plant response rating, Crabgrass (crabgrass; [1]): 0
Crabgrass plant response rating (crabgrass; Preemergence, Rate 62 g/ha): 0
Crabgrass plant response rating (0 to 10 scale) (crabgrass; Preemergence, Rate 125 g/ha): 3
Crabgrass plant response rating (crabgrass; Preemergence, Rate 250 g/ha): 8
Crabgrass plant response rating (crabgrass; Preemergence, Rate 500 g/ha): 9
Crabgrass plant response rating (crabgrass; Rate 62 g/ha, Postemergence): 0
Plant response rating, Crabgrass (crabgrass; [2]): 2
Plant response rating, Redroot pigweed (pigweed; [1]): 4
Redroot pigweed plant response rating (pigweed; Preemergence, Rate 62 g/ha): 0
Redroot pigweed plant response rating (0 to 10 scale) (pigweed; Preemergence, Rate 125 g/ha): 0
Redroot pigweed plant response rating (pigweed; Preemergence, Rate 250 g/ha): 3
Redroot pigweed plant response rating (pigweed; Preemergence, Rate 500 g/ha): 4
Redroot pigweed plant response rating (pigweed; Rate 62 g/ha, Postemergence): 2
